How the values were obtained:
[1] = test system: major crops (wheat, corn, rice, soybean, cotton, oilseed rape, millet, sorghum); assay: Experiment on weeding effect in post-emergence stage (crops); type: in vivo; settings: 600 g/ha active ingredient plus water 450 kg/ha, 3 weeks after application; for corn plant damage level (growth control rate): crop corn; for rice plant damage level (growth control rate): crop rice; for soybean plant damage level (growth control rate): crop soybean
Procedure: (§1) The above growth control rates are fresh weight control rates.
(§2) (1) Experiment on weeding effect in post-emergence stage: monocotyledonous and dicotyledonous weed seeds and major crop seeds (wheat, corn, rice, soybean, cotton, oilseed rape, millet, sorghum) were placed in plastic pots filled with soil, then covered with 0.5-2 cm of soil, allowed to grow in a good greenhouse environment. After 2-3 weeks of sowing, the test plants were treated. The tested compounds of the present invention were respectively dissolved in acetone, then added with Tween 80, diluted with a certain amount of water to obtain a solution with a certain concentration, and sprayed with a spray tower onto the plants.

[2] = test system: monocotyledonous and dicotyledonous weeds; assay: Experiment on weeding effect in post-emergence stage (weeds); type: in vivo; settings: 3 weeks after application; for Amaranthus retroflexus activity level (growth control rate): fomesafen-resistant Amaranthus retroflexus
Description: The activity level criteria for plant damage (i.e., growth control rate) are as follows: • Level 5: growth control rate is above 85%; • Level 4: growth control rate is greater than or equal to 60% and less than 85%; • Level 3: growth control rate is greater than or equal to 40% and less than 60%; • Level 2: growth control rate is greater than or equal to 20% and less than 40%; • Level 1: growth control rate is greater than or equal to […]; • Level 0: growth control rate is less than 5%.
as §1
as §2, with “plants. After the application, the plants were cultured for 3 weeks in the greenhouse, and then the experimental results of the weeding were listed in Table 2.” for “plants.”

[3] = 600 g/ha active ingredient plus water 450 kg/ha, fresh weight control rate

SMILES: CC(C)OC(=O)N1c2ccc(F)cc2C(=O)N(C(C)C)S1(=O)=O [Compound 63]
- corn plant damage level (growth control rate) [1]: 0 (Level 0: growth control rate is less than 5%)
- rice plant damage level (growth control rate) [1]: 0 (Level 0: growth control rate is less than 5%)
- soybean plant damage level (growth control rate) [1]: 0 (Level 0: growth control rate is less than 5%)
- Amaranthus retroflexus activity level (growth control rate) [2, 3]: 5 (Level 5: growth control rate is above 85%)
- Digitaria sanguinalis activity level (growth control rate) [2, 3]: 3 (Level 3: growth control rate is greater than or equal to 40% and less than 60%)
- Echinochloa crus-galli activity level (growth control rate) [2, 3]: 4 (Level 4: growth control rate is greater than or equal to 60% and less than 85%)
- Setaria viridis activity level (growth control rate) [2, 3]: 3 (Level 3: growth control rate is greater than or equal to 40% and less than 60%)

SMILES: CC(C)N1C(=O)c2cc(F)cc(F)c2N(C(=O)OCCCCl)S1(=O)=O [Compound 221]
- Amaranthus retroflexus activity level (growth control rate) [2, 3]: 5 (Level 5: growth control rate is above 85%)
- Digitaria sanguinalis activity level (growth control rate) [2, 3]: 5 (Level 5: growth control rate is above 85%)
- Echinochloa crus-galli activity level (growth control rate) [2, 3]: 4 (Level 4: growth control rate is greater than or equal to 60% and less than 85%)
- Setaria viridis activity level (growth control rate) [2, 3]: 5 (Level 5: growth control rate is above 85%)

SMILES: CC(C)N1C(=O)c2cc(F)ccc2N(C(=O)N(C)C)S1(=O)=O [Compound 190]
- corn plant damage level (growth control rate) [1]: 0 (Level 0: growth control rate is less than 5%)
- rice plant damage level (growth control rate) [1]: 0 (Level 0: growth control rate is less than 5%)
- soybean plant damage level (growth control rate) [1]: 0 (Level 0: growth control rate is less than 5%)
- Amaranthus retroflexus activity level (growth control rate) [2, 3]: 3 (Level 3: growth control rate is greater than or equal to 40% and less than 60%)

SMILES: O=C1c2c(cc(F)c(F)c2F)NS(=O)(=O)N1CCl [E, reference compound]
- corn plant damage level (growth control rate) [1]: 1 (Level 1: growth control rate is greater than or equal to 500 and less than 200%)
- rice plant damage level (growth control rate) [1]: 1 (Level 1: growth control rate is greater than or equal to 500 and less than 200%)
- soybean plant damage level (growth control rate) [1]: 1 (Level 1: growth control rate is greater than or equal to 500 and less than 200%)
- Amaranthus retroflexus activity level (growth control rate) [2, 3]: 2 (Level 2: growth control rate is greater than or equal to 20% and less than 40%)
- Digitaria sanguinalis activity level (growth control rate) [2, 3]: 1 (Level 1: growth control rate is greater than or equal to 500 and less than 200%)
- Echinochloa crus-galli activity level (growth control rate) [2, 3]: 1 (Level 1: growth control rate is greater than or equal to 500 and less than 200%)
- Setaria viridis activity level (growth control rate) [2, 3]: 2 (Level 2: growth control rate is greater than or equal to 20% and less than 40%)

SMILES: CC(C)N1C(=O)c2cc(F)cc(F)c2N(C(=O)N(C)C)S1(=O)=O [Compound 223]
- corn plant damage level (growth control rate) [1]: 0 (Level 0: growth control rate is less than 5%)
- rice plant damage level (growth control rate) [1]: 0 (Level 0: growth control rate is less than 5%)
- Amaranthus retroflexus activity level (growth control rate) [2, 3]: 5 (Level 5: growth control rate is above 85%)
- Digitaria sanguinalis activity level (growth control rate) [2, 3]: 5 (Level 5: growth control rate is above 85%)
- Echinochloa crus-galli activity level (growth control rate) [2, 3]: 3 (Level 3: growth control rate is greater than or equal to 40% and less than 60%)
- Setaria viridis activity level (growth control rate) [2, 3]: 5 (Level 5: growth control rate is above 85%)

SMILES: COCN1c2c(F)cc(F)cc2C(=O)N(C(C)C)S1(=O)=O [Compound 213]
- corn plant damage level (growth control rate) [1]: 0 (Level 0: growth control rate is less than 5%)
- rice plant damage level (growth control rate) [1]: 1 (Level 1: growth control rate is greater than or equal to 500 and less than 200%)
- soybean plant damage level (growth control rate) [1]: 0 (Level 0: growth control rate is less than 5%)
- Amaranthus retroflexus activity level (growth control rate) [2, 3]: 3 (Level 3: growth control rate is greater than or equal to 40% and less than 60%)

SMILES: CCCOC(=O)N1c2ccc(F)cc2C(=O)N(C(C)C)S1(=O)=O [Compound 186]
- corn plant damage level (growth control rate) [1]: 0 (Level 0: growth control rate is less than 5%)
- rice plant damage level (growth control rate) [1]: 0 (Level 0: growth control rate is less than 5%)
- soybean plant damage level (growth control rate) [1]: 0 (Level 0: growth control rate is less than 5%)
- Amaranthus retroflexus activity level (growth control rate) [2, 3]: 4 (Level 4: growth control rate is greater than or equal to 60% and less than 85%)

SMILES: CC(=O)N1c2c(Cl)cc(F)cc2C(=O)N(C(C)C)S1(=O)=O [Compound 152]
- corn plant damage level (growth control rate) [1]: 0 (Level 0: growth control rate is less than 5%)
- rice plant damage level (growth control rate) [1]: 0 (Level 0: growth control rate is less than 5%)
- soybean plant damage level (growth control rate) [1]: 1 (Level 1: growth control rate is greater than or equal to 500 and less than 200%)
- Amaranthus retroflexus activity level (growth control rate) [2, 3]: 5 (Level 5: growth control rate is above 85%)
- Digitaria sanguinalis activity level (growth control rate) [2, 3]: 5 (Level 5: growth control rate is above 85%)
- Echinochloa crus-galli activity level (growth control rate) [2, 3]: 5 (Level 5: growth control rate is above 85%)
- Setaria viridis activity level (growth control rate) [2, 3]: 5 (Level 5: growth control rate is above 85%)

SMILES: CC(C)N1C(=O)c2cc(Br)ccc2NS1(=O)=O [B, reference compound]
- corn plant damage level (growth control rate) [1]: 0 (Level 0: growth control rate is less than 5%)
- rice plant damage level (growth control rate) [1]: 0 (Level 0: growth control rate is less than 5%)
- soybean plant damage level (growth control rate) [1]: 0 (Level 0: growth control rate is less than 5%)
- Amaranthus retroflexus activity level (growth control rate) [2, 3]: 1 (Level 1: growth control rate is greater than or equal to 500 and less than 200%)
- Digitaria sanguinalis activity level (growth control rate) [2, 3]: 0 (Level 0: growth control rate is less than 5%)
- Echinochloa crus-galli activity level (growth control rate) [2, 3]: 0 (Level 0: growth control rate is less than 5%)
- Setaria viridis activity level (growth control rate) [2, 3]: 0 (Level 0: growth control rate is less than 5%)

SMILES: CCN1c2ccc(F)cc2C(=O)N(C(C)C)S1(=O)=O [Compound 176]
- corn plant damage level (growth control rate) [1]: 0 (Level 0: growth control rate is less than 5%)
- rice plant damage level (growth control rate) [1]: 0 (Level 0: growth control rate is less than 5%)
- soybean plant damage level (growth control rate) [1]: 0 (Level 0: growth control rate is less than 5%)
- Amaranthus retroflexus activity level (growth control rate) [2, 3]: 5 (Level 5: growth control rate is above 85%)

SMILES: CCCCC(=O)N1c2ccc(F)cc2C(=O)N(C(C)C)S1(=O)=O [Compound 181]
- corn plant damage level (growth control rate) [1]: 0 (Level 0: growth control rate is less than 5%)
- rice plant damage level (growth control rate) [1]: 0 (Level 0: growth control rate is less than 5%)
- soybean plant damage level (growth control rate) [1]: 0 (Level 0: growth control rate is less than 5%)
- Amaranthus retroflexus activity level (growth control rate) [2, 3]: 5 (Level 5: growth control rate is above 85%)

SMILES: CS(=O)(=O)NC(=O)c1cc(Oc2ccc(C(F)(F)F)cc2Cl)ccc1[N+](=O)[O-] [fomesafen, reference compound]
- Digitaria sanguinalis activity level (growth control rate) ([2]; 300 g/ha): 0 (Level 0: growth control rate is less than 5%)
- Echinochloa crus-galli activity level (growth control rate) ([2]; 300 g/ha): 1 (Level 1: growth control rate is greater than or equal to 500 and less than 200%)
- Setaria viridis activity level (growth control rate) ([2]; 300 g/ha): 2 (Level 2: growth control rate is greater than or equal to 20% and less than 40%)
- Amaranthus retroflexus activity level (growth control rate) ([2]; 300 g/ha): 1 (Level 1: growth control rate is greater than or equal to 500 and less than 200%)

SMILES: CCS(=O)(=O)N1c2c(F)cc(F)cc2C(=O)N(C(C)C)S1(=O)=O [Compound 228]
- Amaranthus retroflexus activity level (growth control rate) [2, 3]: 5 (Level 5: growth control rate is above 85%)
- Digitaria sanguinalis activity level (growth control rate) [2, 3]: 3 (Level 3: growth control rate is greater than or equal to 40% and less than 60%)
- Echinochloa crus-galli activity level (growth control rate) [2, 3]: 3 (Level 3: growth control rate is greater than or equal to 40% and less than 60%)
- Setaria viridis activity level (growth control rate) [2, 3]: 5 (Level 5: growth control rate is above 85%)

Reference: patent publication US12441695B2, “Substituted thiadiazinone dioxide and preparation method therefor, herbicidal composition, and application therefor” (Qingdao Kingagroot Chemical Compound Co., Ltd., priority 2019, dated 2025)
